According to publication PMC8694143 (Microbiology Spectrum, 2021):
No end group written: not given here.

Tests used:
[1] = system: MRSA 33592; assay: Transmission electron microscopy; assay type: cell-based, Staphylococcus aureus; settings: 25 μg/mL, PBS, 37°C
Method: Samples for TEM imaging were prepared by diluting MRSA 33592 cultures to an OD of 0.5 in PBS before the cell suspension was treated with 25 μg/mL STIP3-29. Treated and untreated cells were incubated at 37°C. Treated samples were prepared from imaging after 30 min and 4 h of treatment. An untreated control sample was prepared after a 4 h incubation period. Cells from the distinct time points or treatments were harvested by centrifugation, fixed for 4 h using 2% glutaraldehyde, postfixed for 1 h with 1% OsO4, dehydrated with a graded ethanol series, embedded in Epon, and en bloc stained with saturated uranyl acetate in 70% ethanol prior to sectioning. Imaging was performed using a Hitachi HT7700 instrument.

[2] = system: M. luteus ATCC 4698; assay: MIC determination in broth; assay type: cell-based, Micrococcus luteus
[3] = system: sheep red blood cells; assay: Hemolytic activity assay; assay type: cell-based; settings: peptides at 100 μg/mL, 1 h, relative to the δ-toxin and other STIPs
Method: Thirty-five percent defibrinated sheep’s blood (vol/vol) was centrifuged for 5 min at 4,000 rpm to harvest red blood cells. The cells were washed three times with PBS and harvested by centrifugation prior to dilution to 15% (vol/vol) in PBS in order to evaluate peptide-mediated hemolysis. The assay was performed in 96-well microtiter plates using peptides at 100 μg/mL in a 200-μL volume. […] was used as a negative control and Triton X-100 (0.1% vol/vol) was used as a positive control for complete lysis. After 1 h of incubation, the 96-well microtiter plates were centrifuged at 4,500 rpm for 10 min and a 150 μL aliquot of the supernatant from each sample was carefully transferred to a new 96-well plate. The absorbance of the supernatant was then measured at 540 nm using a Varioskan Lux plate reader (Thermo Scientific). The hemolytic activity is reported relative to complete lysis (%) obtained using Triton X-100. Experiments were performed in triplicate, and statistical differences in hemolysis were measured using an unpaired two-tailed Student’s t test to compare the STIPs and deformylated δ-toxin to the formylated δ-toxin.

[4] = system: S. aureus bovid isolate (RDM-1); assay: MIC determination in broth; assay type: cell-based, Staphylococcus aureus; settings: clinical isolate, mastitis in a dairy cow; MH broth
Method: (§1) The MICs were measured for bioactive peptides identified from the initial screen. Cation-adjusted Mueller-Hinton (MH) broth was used as the growth medium for MIC determination experiments. Bacterial cultures were diluted to an OD of 5 × 10^−4 (∼10^5 CFU/mL) in 200 μL MH broth mixed with peptides in a 2-fold dilution series arrayed in 96-well plates. Plates were incubated without shaking at 30 or 37°C depending on the organism.

[5] = system: MRSA ATCC BAA-44; assay: MIC determination in broth; assay type: cell-based, Staphylococcus aureus; settings: STIP3 variants, highest conc. tested 100 μg/mL; cation-adjusted MH broth, ~10^5 CFU/mL, 2-fold dilution series, 37°C, 16 h
Method in brief: (§2)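 Cation-adjusted MH broth, inoculum OD 5 × 10^−4 (∼10^5 CFU/mL), 2-fold peptide series, static incubation at 37°C (Staphylococcus spp.).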

[6] = system: MRSA ATCC BAA-42; assay: MIC determination in broth; assay type: cell-based, Staphylococcus aureus; settings: STIP3 variants, highest conc. tested 100 μg/mL; cation-adjusted MH broth, ~10^5 CFU/mL, 2-fold dilution series, 37°C, 16 h
Method in brief: as §2

[7] = system: S. epidermidis; assay: MIC determination in broth; assay type: cell-based, Staphylococcus epidermidis; settings: isolate from the healthy quarter of a dairy cow; MH broth
Method: as §1

[8] = system: S. pseudintermedius human isolate SPC020 (MSSR); assay: MIC determination in broth; assay type: cell-based, Staphylococcus pseudintermedius; settings: MH broth
Method: as §1

[9] = system: S. pseudintermedius canine isolate MRSP24; assay: MIC determination in broth; assay type: cell-based, Staphylococcus pseudintermedius; settings: MH broth
Method: as §1

[10] = system: S. pseudintermedius human isolate SPC001 (MSSP); assay: MIC determination in broth; assay type: cell-based, Staphylococcus pseudintermedius; settings: MH broth
Method: as §1

[11] = system: S. pseudintermedius canine isolate MSSP42; assay: MIC determination in broth; assay type: cell-based, Staphylococcus pseudintermedius; settings: MH broth
Method: as §1

[12] = system: S. pseudintermedius canine isolate MRSP16; assay: MIC determination in broth; assay type: cell-based, Staphylococcus pseudintermedius; settings: MH broth
Method: as §1

[13] = system: S. pseudintermedius human isolate SPC002 (MSSP); assay: MIC determination in broth; assay type: cell-based, Staphylococcus pseudintermedius; settings: MH broth
Method: as §1

[14] = system: panel of 7 MRSA strains; assay: Bactericidal activity time course, MRSA panel; assay type: cell-based, Staphylococcus aureus
Method: Time-dependent inhibition of pathogens was measured using standing bacterial cultures treated with 2× MIC. Overnight cultures were diluted to 10^4 or 10^7 CFU/mL in 2 mL of MH broth supplemented with the appropriate peptide concentration or sterile water as a control. Standing cultures were then incubated at 37°C and 100 μL aliquots were removed at specified time intervals. For the panel of 7 MRSA strains, treatment intervals of 30 min, 4 h, 8 h, and 24 h were used. For MRSA ATCC 33592, ATCC 1683, and S. pseudintermedius SPC002, shorter intervals included 5, 30, 60, 120, 240, and 360 min. The 100-μL aliquots were plated using serial dilutions as necessary on LB agar, and CFU were counted as a measure of bacterial viability after 24 h. To normalize cell viability data, surviving cells in CFU/mL were compared to the initial bacterial inoculum of each strain and then expressed as a percentage of that concentration. All experiments were performed in triplicate with values reported as the mean with standard deviations. Statistical differences in the observed viability of bacteria treated with STIP3-29 were analyzed using a paired two-tailed Student’s t test comparing the pretreatment (0 h) viability to those observed at posttreatment time points using Stata v17.0 software.

[15] = system: S. auricularis; assay: MIC determination in broth; assay type: cell-based, Staphylococcus auricularis; settings: isolate from the healthy quarter of a dairy cow; MH broth
Method: as §1

In the case of TVGGLVKWILKTVKKFA-NH2 [STIP3-29], the “Peptide-induced lysis by TEM, 30 min” value ([1]; 30 min) is reported as “No peptide-induced lysis was observed”, the “Peptide-induced lysis by TEM, 4 h” value ([1]; 4 h) is reported as “evidence was present” and the “MIC, M. luteus” value ([2]; cation-adjusted MH broth, ~10^5 CFU/mL, 30°C, 48 h) is reported as 1.56 µg/mL. The “MIC, M. luteus, molar” value ([2]; conversion of 1.56 μg/mL) was 0.85 µM, the “Change of hemolytic activity” value [3] was “increase in hemolysis” and the “MIC, S. aureus bovid isolate (RDM-1)” value [4] was 6.25 µg/mL. For the same substance, the “MIC, S. aureus ATCC BAA 44 (SCCmec I)” value [5] was 6.25 µg/mL, the “MIC, S. aureus ATCC BAA 42 (SCCmec VI)” value [6] was 6.25 µg/mL and the “MIC, S. epidermidis” value [7] was 3.13 µg/mL. The “MIC, S. pseudintermedius SPC020 (MSSR)” value [8] was 3.13 µg/mL, the “MIC, S. pseudintermedius MRSP24” value [9] was 3.13 µg/mL and the “MIC, S. pseudintermedius SPC001 (MSSP)” value [10] was 3.13 µg/mL. For the same substance, the “MIC, S. pseudintermedius MSSP42” value [11] was 3.13 µg/mL, the “MIC, S. pseudintermedius MRSP16” value [12] was 3.13 µg/mL and the “MIC, S. pseudintermedius SPC002 (MSSP)” value [13] was 3.13 µg/mL. For the same substance, the “Recovery of viable MRSA cells” value ([14]; 12.5 μg/mL (2× MIC), MH broth, 37°C, 4 h, all 7 MRSA strains, triplicate) was “less than 1%”, the “Mode of antibacterial action from viability time courses” value ([14]; MRSA viability during two time course experiments) was “bactericidal” and the “MIC, S. auricularis” value [15] was 1.56 µg/mL.
